Experimental data published in PubChem BioAssay (NCI).
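Protocol summary: plate cells (96-well), add compound at 5 concentrations, incubate 48 h, interpolate endpoints linearly. The concentration for full growth arrest is given as TGI.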

Key:
Experiment in all cases: NCI tumour cell line growth inhibition, 48 h
[1] = test system: UO-31 renal
[2] = test system: PC-3 prostate
[3] = test system: RXF 393 renal
[4] = test system: SNB-19 CNS
[5] = test system: SK-OV-3 ovarian
[6] = test system: SF-295 CNS
[7] = test system: SN12C renal
[8] = test system: CAKI-1 renal
[9] = test system: A549 NSCLC
[10] = test system: SF-539 CNS
[11] = test system: ACHN renal
[12] = test system: HCT-116 colon
[13] = test system: HT29 colon
[14] = test system: MDA-N
[15] = test system: HCT-15 colon
[16] = test system: OVCAR-8 ovarian
[17] = test system: MDA-MB-231 breast
[18] = test system: MDA-MB-435
[19] = test system: SK-MEL-2 melanoma
[20] = test system: SK-MEL-28 melanoma

| Structure (SMILES) | TGI [1] [µM] | TGI [2] [µM] | TGI [3] [µM] | TGI [4] [µM] | TGI [5] [µM] | TGI [6] [µM] | TGI [7] [µM] | TGI [8] [µM] | TGI [9] [µM] | TGI [10] [µM] | TGI [11] [µM] | TGI [12] [µM] | TGI [13] [µM] | TGI [14] [µM] | TGI [15] [µM] | TGI [16] [µM] | TGI [17] [µM] | TGI [18] [µM] | TGI [19] [µM] | TGI [20] [µM] |
| --- | --- | --- | --- | --- | --- | --- | --- | --- | --- | --- | --- | --- | --- | --- | --- | --- | --- | --- | --- | --- |
| O=c1[nH]c2ccc(Cl)cc2o1 | > 100 | > 100 | > 100 | > 100 | > 100 | > 100 | > 100 | > 100 | > 100 | > 100 | > 100 | > 100 | > 100 | > 100 | > 100 | > 100 | > 100 | > 100 | – | – |
| COc1c2cc([N+](=O)[O-])cc1CN(C(=O)C(F)(F)F)CCOCCN(C(=O)C(F)(F)F)C2 | > 100 | > 100 | – | > 100 | > 100 | > 100 | > 100 | > 100 | > 100 | > 100 | > 100 | > 100 | > 100 | > 100 | > 100 | > 100 | > 100 | > 100 | > 100 | > 100 |
| c1ccc(C2=NN=C3C(c4ccccc4)=Nc4ccccc4N3C2)cc1 | > 59.4 | > 100 | > 100 | > 100 | > 100 | – | > 100 | > 100 | > 100 | > 100 | > 100 | > 95.6 | > 69.6 | > 100 | > 100 | > 100 | > 100 | 98.7 | > 82.2 | > 100 |
| O=CC(O)C(O)C1OC(=O)c2cc(O)c(O)c(O)c2C2=C(O)C(O)=C3OC(=O)c4c(c(O)c(O)c5c4C3C2C(=O)O5)-c2c(cc(O)c(O)c2O)C(=O)OCC1O (stereo not drawn) | > 100 | > 100 | > 100 | > 100 | > 100 | > 100 | 30.4 | 37.7 | > 100 | – | > 100 | 29 | 42.9 | 41.1 | > 100 | 45.9 | 58.1 | 34.1 | > 100 | > 100 |
| COc1cc2c(c(OC)c1OC)C(=O)[C@@H](O)[C@H]2NC(N)=O | > 100 | > 100 | > 100 | > 100 | – | > 100 | > 100 | > 100 | > 100 | > 100 | > 100 | > 100 | > 100 | > 100 | > 100 | > 100 | > 100 | > 100 | – | > 100 |
| O=C(Cn1c(C(=O)/C=C/c2ccc(Cl)cc2)nc2ccccc21)c1ccc(Cl)cc1 | 43 | > 100 | 32.6 | 69.5 | > 100 | – | 37.3 | – | 71.5 | 38.6 | 72.5 | 26.2 | 42.5 | 61 | 51.8 | – | 52 | 37.5 | 39.5 | 62.6 |
| CC(NP(=O)(c1ccccc1)c1ccccc1)c1ccccc1 (stereo not drawn) | > 100 | > 100 | > 100 | > 100 | > 100 | > 100 | > 100 | > 100 | > 100 | > 100 | > 100 | > 100 | > 100 | > 100 | > 100 | > 100 | > 100 | > 100 | – | > 100 |
| Cc1ccc2c(=O)c(-c3nnc(NC4CCCCC4)s3)c[nH]c2n1 | > 100 | > 100 | > 100 | > 100 | – | > 100 | > 100 | > 100 | > 100 | – | > 100 | > 100 | > 100 | > 100 | > 100 | > 100 | > 100 | > 100 | > 100 | > 100 |
| CN(C)CCNC(=O)c1cccc2c1Oc1cccc([N+](=O)[O-])c1O2 | 32.5 | 29.8 | – | > 100 | 37.4 | 36.7 | > 100 | 33.7 | 35.9 | 40.1 | 37.5 | 30.6 | 33.5 | 31.6 | > 100 | 50 | 20.5 | 32.6 | 49.3 | 38.9 |
| COC(=O)[C@]12C3=C(O)C(=O)C[C@H]1OC[C@H]2C=CC3 | > 100 | > 100 | > 100 | > 100 | > 100 | > 100 | > 100 | > 100 | > 100 | – | > 100 | – | – | > 100 | > 100 | > 100 | > 100 | > 100 | > 100 | > 100 |
| CCOC(=O)N/N=C(\CC)NO | > 100 | > 100 | > 100 | > 100 | > 100 | – | > 100 | > 100 | > 100 | > 100 | > 100 | > 100 | > 100 | > 100 | > 100 | > 100 | > 100 | > 100 | > 100 | > 100 |
| Cc1ccc2c(c1)C=CC1(O2)N(c2ccccc2)C(=S)OC1(C)C (stereo not drawn) | > 100 | > 100 | > 100 | > 100 | > 100 | > 100 | > 100 | > 100 | > 100 | – | > 100 | > 100 | > 100 | 94.3 | > 100 | > 100 | > 100 | > 100 | > 100 | > 100 |
| CC(=O)N1C(=O)c2cc3ccccc3cc21 | > 100 | > 100 | – | > 100 | > 100 | – | > 100 | – | > 100 | > 100 | > 100 | > 100 | – | > 100 | > 100 | > 100 | > 100 | > 100 | > 100 | > 100 |
| COC(=O)CSc1nc2[nH]c(SC)c(C(N)=O)c2c(=O)n1-c1ccccc1 | – | > 10 | > 10 | – | > 10 | > 10 | > 10 | > 10 | > 10 | – | – | – | > 10 | > 10 | > 10 | > 10 | > 10 | > 10 | – | > 10 |
| CCOC(=O)c1c(N2CCOCC2)ncn(-c2cccc(Cl)c2)c1=O | – | > 100 | > 100 | > 100 | > 100 | > 100 | > 100 | > 100 | > 100 | > 100 | > 100 | > 100 | > 100 | > 100 | > 100 | > 100 | > 100 | > 100 | > 100 | > 100 |
| CC(C)[C@@H]1CC[C@@H](C)C[C@H]1OC(=O)/C=C1\C(C(=O)O[C@@H]2C[C@H](C)CC[C@H]2C(C)C)[C@H]2C=C[C@@H]1O2 (stereo partly drawn) | > 100 | > 100 | > 100 | > 100 | > 100 | > 100 | > 100 | > 100 | > 100 | > 100 | > 100 | > 100 | > 100 | > 100 | > 100 | > 100 | > 100 | > 100 | – | > 100 |
| O=C1C=C(NCC(c2ccccc2)c2ccccc2)C(=O)c2ncccc21 | 12.2 | 6.24 | – | 9.62 | 47.6 | 3.51 | 5.16 | 11.4 | 1.87 | 8.55 | 13.4 | > 23.7 | 25.8 | 3.38 | 1.34 | 11.5 | 11.5 | 2.84 | 9.13 | 10 |
| O=c1oc2ccccc2c(O)c1C(c1cccc(C(c2c(O)c3ccccc3oc2=O)c2c(O)c3ccccc3oc2=O)c1)c1c(O)c2ccccc2oc1=O | – | > 100 | > 100 | – | > 100 | > 100 | 83 | 49.5 | > 100 | 53.9 | > 100 | > 100 | > 100 | > 100 | > 100 | > 100 | 99.3 | > 100 | > 100 | > 100 |
| CC1(C)OC[C@H](COCOP2(=O)Oc3ccc4ccccc4c3-c3c(ccc4ccccc34)O2)O1 | 32.6 | 27.6 | – | 34.7 | 73.3 | 32.2 | 30.1 | – | 63.3 | 39.8 | 37.3 | 28.3 | 31.3 | 26.8 | 28.6 | 63.3 | 31 | 26.5 | – | 27 |
| C[C@H](c1ccccc1)n1c(N)c(-c2nc3ccccc3s2)c2ccc([N+](=O)[O-])cc2c1=O | 18.4 | > 65.7 | – | > 52.1 | > 100 | 50.8 | > 100 | > 85.1 | > 100 | 54 | 65.7 | 10.9 | > 52.7 | > 80.4 | > 75.4 | > 100 | 27.7 | > 79.7 | > 28.7 | > 100 |
| Cc1cc(S(=O)(=O)NC2=NCCCN2)c(S)cc1Cl | > 100 | > 100 | > 100 | > 100 | > 100 | – | > 100 | > 100 | 53.9 | > 100 | > 100 | 94.1 | 49.6 | > 100 | > 100 | 67.6 | > 100 | 54.7 | 77.7 | > 100 |
| COc1ccc(/C=C2\Sc3nnc(-c4ccccc4)n3N=C2c2cc(F)c(Cl)cc2Cl)cc1OC | > 100 | > 100 | 54.4 | – | > 100 | > 100 | – | > 100 | – | > 100 | > 100 | > 100 | > 100 | > 100 | > 100 | > 100 | > 100 | > 100 | > 100 | > 100 |
| Nc1n[nH]c2c(C(=O)Nc3ccc(Cl)cc3)c(N)n(N)c(=O)c12 | > 100 | > 100 | > 100 | > 100 | > 100 | – | > 100 | > 100 | > 100 | > 100 | – | > 100 | > 100 | > 100 | > 100 | > 100 | > 100 | > 100 | > 100 | > 100 |
| CN(C(=S)Cc1ccc(Cl)c(Cl)c1)C1CCCC[C@@H]1N1CCCC1 (stereo partly drawn) | 48.8 | > 100 | – | > 100 | > 100 | 36.2 | > 100 | > 100 | > 100 | > 100 | > 100 | > 100 | 45.5 | 36.2 | > 100 | – | > 100 | 87.5 | > 100 | 31.6 |
| C=CCc1oc(C)nc1CCCC | > 100 | > 100 | > 100 | > 100 | > 100 | > 100 | > 100 | > 100 | > 100 | > 100 | > 100 | > 100 | > 100 | > 100 | > 100 | > 100 | > 100 | > 100 | – | > 100 |
